According to patent US9169251B2, “Pyrrolopyridine derivatives and their use as CRTH2 antagonists” (Novartis AG, priority 2004, dated 2015):

Target: T1, CRTh2 receptor (Homo sapiens, UniProt Q9Y5Y4)
T1 construct: expressed in transfected cells; host or cells: CHO.K1 (Chinese Hamster Ovary) cells, line CHO.K1-CRTh2
T1 sequence (Q9Y5Y4 1-395): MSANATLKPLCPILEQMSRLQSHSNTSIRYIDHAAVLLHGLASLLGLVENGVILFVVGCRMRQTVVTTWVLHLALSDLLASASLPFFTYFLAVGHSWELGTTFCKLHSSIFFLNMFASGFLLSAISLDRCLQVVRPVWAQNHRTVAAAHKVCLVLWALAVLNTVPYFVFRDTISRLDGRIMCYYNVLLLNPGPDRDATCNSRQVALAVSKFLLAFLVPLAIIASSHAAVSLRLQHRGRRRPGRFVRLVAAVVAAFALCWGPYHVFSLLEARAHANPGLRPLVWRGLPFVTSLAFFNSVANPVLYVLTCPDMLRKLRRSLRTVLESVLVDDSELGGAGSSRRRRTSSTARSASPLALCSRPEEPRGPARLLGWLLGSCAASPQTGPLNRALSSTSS
Test: Filtration binding assay: competition with [3H]-PGD2 on CHO.K1-CRTh2 membranes (called SPA binding assay)
Settings: [3H]-PGD2 2.5 nM
Procedure: Filtration Binding Assay Protocol
The binding of CRTh2 antagonists is determined using membranes prepared from human CRTh2-expressing Chinese Hamster Ovary cells (CHO.K1-CRTh2). To produce cell membranes CHO.K1-CRTh2 cells cultured in roller bottles are harvested using cell dissociation buffer (Invitrogen). The cells are pelleted by centrifugation (167 g, 5 min). […] At 4° C. cells are homogenized using a Polytron® (IKA Ultra Turrax T25) for 5 bursts of 1 second.
The binding of [^3H]-PGD2 (157 Ci/mmol) to CHO.K1-CRTh2 membranes is determined in the absence (total binding) and presence (non-specific binding) of unlabelled PGD2 (1 μM). Subtraction of the cpm (counts per minute) of [^3H]-PGD2 binding in presence of excess unlabelled PGD2 from that observed in the absence of excess unlabelled PGD2 is defined as specific binding. […]
The plates are incubated at room temperature on a shaker for 1 hour, and then harvested (Tomtec Harvester 9600) onto GF/C filter plates using wash buffer (10 mM HEPES-KOH, pH 7.4). […] Plates are then counted using a Packard Top Count instrument, Plates are then read on the Packard Topcount with the 3H Scintillation program (1 min per well). […]
Ki values are determined using Sigma Plot™ software, using the Cheng-Prussoff equation. […]

Cc1c(CC(=O)O)c2cccnc2n1Cc1ccc(S(C)(=O)=O)cc1C(F)(F)F [Example 95, [1-(4-Methanesulfonyl-2-trifluoromethyl-benzyl)-2-methyl-1H-pyrrolo[2,3-b]pyridin-3-yl]-acetic acid]
Ki: 4 nM
